# Experimental data from BindingDB's records for doi:10.1021/jm900098v (Kosan Biosciences, 2009).
# pKd: −log10 of the molar value.
# Biological target: Heat shock protein HSP 90-beta (Homo sapiens, UniProt P08238)
# Assay: Binding affinity to human recombinant HSP90
# Sequence of Heat shock protein HSP 90-beta (P08238 whole entry): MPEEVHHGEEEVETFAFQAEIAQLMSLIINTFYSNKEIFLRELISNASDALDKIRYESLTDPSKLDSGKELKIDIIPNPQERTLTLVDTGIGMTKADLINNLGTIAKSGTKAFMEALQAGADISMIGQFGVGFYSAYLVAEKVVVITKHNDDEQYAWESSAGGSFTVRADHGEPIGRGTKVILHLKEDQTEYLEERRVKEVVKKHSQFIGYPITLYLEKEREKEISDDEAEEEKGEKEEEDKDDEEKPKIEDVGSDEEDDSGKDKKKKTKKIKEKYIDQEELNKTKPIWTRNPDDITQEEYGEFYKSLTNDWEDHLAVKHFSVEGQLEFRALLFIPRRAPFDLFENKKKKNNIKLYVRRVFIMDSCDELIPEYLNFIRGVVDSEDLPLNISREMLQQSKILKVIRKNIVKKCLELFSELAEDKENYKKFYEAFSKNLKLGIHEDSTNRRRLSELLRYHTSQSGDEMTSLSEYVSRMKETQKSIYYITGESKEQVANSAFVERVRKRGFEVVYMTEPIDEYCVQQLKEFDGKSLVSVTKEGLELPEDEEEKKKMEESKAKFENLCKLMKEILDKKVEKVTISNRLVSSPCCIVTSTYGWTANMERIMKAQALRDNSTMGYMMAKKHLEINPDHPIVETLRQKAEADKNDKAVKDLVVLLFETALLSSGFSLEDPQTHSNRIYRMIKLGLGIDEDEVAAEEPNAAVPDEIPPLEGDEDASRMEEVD
row,SMILES,pKd
1,"CO/N=C1/[C@@H](OC)C[C@H](C)Cc2c(O)c(cc(O)c2N=CCN(C)C)NC(=O)C(C)=CC=C[C@H](OC)[C@@H](OC(N)=O)/C(C)=C/[C@@H]1C [(8S,9S,12S,14S,16R)-19-(2-(dimethylamino)ethylamino)-8,14-dimethoxy-13-(methoxyimino)-4,10,12,16-tetramethyl-3,20,22-trioxo-2-azabicyclo[16.3.1]docosa-1(21),4,6,10,18-pentaen-9-yl carbamate]",< 4.00
2,"CO[C@H]1C[C@H](C)Cc2c(O)c(cc(O)c2N=CCN(C)C)NC(=O)C(C)=CC=C[C@H](OC)[C@@H](OC(N)=O)C(C)=C[C@H](C)C1N=O (stereo partly drawn) [(8S,9S,12S,14S,16R)-19-(2-(dimethylamino)ethylamino)-13-(hydroxyimino)-8,14-dimethoxy-4,10,12,16-tetramethyl-3,20,22-trioxo-2-azabicyclo[16.3.1]docosa-1(21),4,6,10,18-pentaen-9-yl carbamate]",< 5.00
3,"CO[C@H]1C=CC=C(C)C(=O)Nc2cc(O)c(N=CCF)c(c2O)C[C@@H](C)C[C@H](OC)[C@H](O)[C@@H](C)/C=C(\C)[C@@H]1OC(N)=O [Carbamic acid (4E,6Z,10E)-(8S,9S,12S,13R,14S,16R)-19-(2-fluoro-ethylamino)-13-hydroxy-8,14-dimethoxy-4,10,12,16-tetramethyl-3,20,22-trioxo-2-aza-bicyclo[16.3.1]docosa-1(21),4,6,10,18-pentaen-9-yl ester]",6.10
